According to PubChem BioAssay AID602398 (The Scripps Research Institute Molecular Screening Center, 2012):
Calls of active or inactive are those of the source. No rule for the calls is given here.

target: Tyrosine-protein kinase ABL1 (Homo sapiens) + Ras and Rab interactor 1 (Homo sapiens) (UniProt P00519+Q13671); experiment: concentration response for Abl-Rin1 disruption – biochemical, TR-FRET, dose response, late-stage follow-up (AID 602398); settings: TR-FRET Rin1-Abl binding
Sequence (P00519 whole entry, looked up): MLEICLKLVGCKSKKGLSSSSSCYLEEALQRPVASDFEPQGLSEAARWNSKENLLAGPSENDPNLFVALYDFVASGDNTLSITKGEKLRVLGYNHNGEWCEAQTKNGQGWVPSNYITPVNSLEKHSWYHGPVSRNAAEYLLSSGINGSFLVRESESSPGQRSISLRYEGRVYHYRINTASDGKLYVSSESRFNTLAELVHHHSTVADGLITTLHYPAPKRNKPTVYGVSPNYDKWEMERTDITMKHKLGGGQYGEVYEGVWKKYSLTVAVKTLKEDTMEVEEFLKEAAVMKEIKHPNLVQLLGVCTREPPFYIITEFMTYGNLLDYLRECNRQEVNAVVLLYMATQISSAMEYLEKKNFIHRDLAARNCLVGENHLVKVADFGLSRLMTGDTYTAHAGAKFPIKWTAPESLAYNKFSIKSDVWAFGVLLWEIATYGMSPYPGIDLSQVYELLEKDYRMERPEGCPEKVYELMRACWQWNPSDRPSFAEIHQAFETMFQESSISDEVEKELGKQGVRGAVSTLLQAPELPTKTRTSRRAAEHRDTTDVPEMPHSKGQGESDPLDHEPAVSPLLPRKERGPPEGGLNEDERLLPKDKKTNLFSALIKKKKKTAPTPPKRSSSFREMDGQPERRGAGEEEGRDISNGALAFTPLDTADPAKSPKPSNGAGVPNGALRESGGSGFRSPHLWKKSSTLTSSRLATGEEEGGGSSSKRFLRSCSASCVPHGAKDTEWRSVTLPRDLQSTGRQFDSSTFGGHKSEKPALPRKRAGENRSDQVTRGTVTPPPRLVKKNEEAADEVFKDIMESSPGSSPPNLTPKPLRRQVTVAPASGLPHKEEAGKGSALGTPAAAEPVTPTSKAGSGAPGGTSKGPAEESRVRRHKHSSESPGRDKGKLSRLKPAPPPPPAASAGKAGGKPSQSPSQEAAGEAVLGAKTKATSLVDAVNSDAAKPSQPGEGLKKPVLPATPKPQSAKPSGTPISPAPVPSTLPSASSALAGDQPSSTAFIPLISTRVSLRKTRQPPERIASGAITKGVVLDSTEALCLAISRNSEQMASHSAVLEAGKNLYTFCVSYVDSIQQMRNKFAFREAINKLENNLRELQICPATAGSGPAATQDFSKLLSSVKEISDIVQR
Sequence (Q13671 whole entry, looked up): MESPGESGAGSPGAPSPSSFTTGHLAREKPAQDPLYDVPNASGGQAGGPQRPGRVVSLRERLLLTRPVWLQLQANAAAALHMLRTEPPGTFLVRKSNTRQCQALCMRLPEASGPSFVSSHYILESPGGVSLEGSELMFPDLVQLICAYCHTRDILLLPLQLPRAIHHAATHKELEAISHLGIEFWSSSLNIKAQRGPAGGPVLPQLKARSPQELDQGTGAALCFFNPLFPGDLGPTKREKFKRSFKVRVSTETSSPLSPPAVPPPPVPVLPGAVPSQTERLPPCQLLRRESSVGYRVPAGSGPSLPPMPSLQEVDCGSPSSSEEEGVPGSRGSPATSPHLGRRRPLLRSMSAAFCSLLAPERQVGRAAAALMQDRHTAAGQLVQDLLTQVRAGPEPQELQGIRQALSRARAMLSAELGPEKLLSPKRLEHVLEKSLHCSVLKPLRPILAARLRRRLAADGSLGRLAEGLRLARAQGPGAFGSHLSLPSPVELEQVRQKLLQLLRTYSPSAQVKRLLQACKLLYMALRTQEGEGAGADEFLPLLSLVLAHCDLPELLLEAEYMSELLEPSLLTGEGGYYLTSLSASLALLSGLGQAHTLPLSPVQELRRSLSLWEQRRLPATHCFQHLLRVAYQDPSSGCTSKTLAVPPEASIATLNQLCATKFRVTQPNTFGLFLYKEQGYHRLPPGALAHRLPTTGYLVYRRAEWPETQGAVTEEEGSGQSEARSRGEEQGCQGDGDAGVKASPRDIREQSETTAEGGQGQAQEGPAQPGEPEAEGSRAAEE

SMILES | IC50
O=C(Cc1ccc(NC(=O)C2CCN(C(=O)C3CCCCC3)CC2)cc1)Nc1ccc(C(=O)N2CCOCC2)cc1 | inactive
COc1ccc2oc(C(=O)NCC(c3ccco3)N(C)C)c(C)c2c1 (stereo not drawn) | 5.19 µM
N#Cc1ccccc1Sc1ccccc1C(=O)NCC(c1ccco1)N1CCCC1 (stereo not drawn) | 4.08 µM
CCOC(=O)N1CCN(C(=O)Nc2ccc(NC(=O)N3CCN(C(=O)OCC)CC3)cc2)CC1 | inactive
CN(CCc1ccccc1)C(=O)c1ccc(NC(=O)Cc2ccc(NC(=O)C3CCN(C(=O)C4CCCC4)CC3)cc2)cc1 | 5.22 µM
O=C(Cc1ccc(NC(=O)C2CCN(C(=O)c3ccccc3)CC2)cc1)Nc1ccc(C(=O)N2CCOCC2)cc1 | inactive
O=c1cc(OCc2ccccc2)cc[nH]1 | 0.0161 µM
CSc1ccccc1OCc1cc(C(=O)N2CCNC(=O)C2)no1 | 5.94 µM
CCOC(=O)N1CCC(NC(=O)CCc2nc(C3=CCN(C)CC3)no2)CC1 | 9.41 µM
Cn1c(=O)c2c(nc(-n3ccnc3)n2Cc2ccc(Cl)cc2Cl)n(C)c1=O | 4.31 µM
Cc1c(C(=O)NCC(c2ccco2)N(C)C)oc2c(Cl)cccc12 (stereo not drawn) | 4.68 µM
CN(Cc1c(F)cccc1Cl)C(=O)CNC(=O)c1ccc2c(c1)OCO2 | 3.77 µM
COc1cccc(CSc2nnc(CSc3nc4nc(C)cc(C)n4n3)s2)c1 | 9.57 µM
CN(CCc1ccccc1)C(=O)c1ccc(NC(=O)Cc2ccc(NC(=O)C3CCN(C(=O)c4ccccc4)CC3)cc2)cc1 | 8.52 µM
O=C(Cc1ccc(NC(=O)C2CCN(C(=O)C3CCCC3)CC2)cc1)Nc1ccc(C(=O)N2CCOCC2)cc1 | 4.37 µM
CN(C(=O)c1ccc(NC(=O)Cc2ccc(NC(=O)C3CCN(C(=O)c4ccccc4)CC3)cc2)cc1)C1CC1 | 2.53 µM
CC(=O)Nc1ccc(NC(=O)C2CCN(C(=O)c3cccs3)CC2)cc1 | 2.17 µM
COc1ccc(CCNc2cc(=O)[nH]c(N)n2)cc1 | 4.01 µM
